Holding throughout (type): cell-based
Assay [1] has as its target T1, Q2/Q3 (KCNQ2/3) (Homo sapiens, UniProt O43525+O43526).
T1 construct: heterotetramer; equal mRNA amounts of both subunits in Xenopus laevis oocytes
Description: two-electrode voltage clamp, Xenopus oocytes; delta gmax on washout, hyperbola fit. The conditions noted are these: read-out: Phenylboronic Acid (PBA) / EC50. The text has this:
two-electrode voltage clamp, Xenopus oocytes; delta gmax on washout, hyperbola fit on Q2/Q3 (KCNQ2/3)

In assay [2] the target is T2, KCNQ4 (Q4) (Homo sapiens, UniProt P56696).
T2 construct: homotetramer expressed in Xenopus laevis oocytes
T2 sequence (P56696 1-695): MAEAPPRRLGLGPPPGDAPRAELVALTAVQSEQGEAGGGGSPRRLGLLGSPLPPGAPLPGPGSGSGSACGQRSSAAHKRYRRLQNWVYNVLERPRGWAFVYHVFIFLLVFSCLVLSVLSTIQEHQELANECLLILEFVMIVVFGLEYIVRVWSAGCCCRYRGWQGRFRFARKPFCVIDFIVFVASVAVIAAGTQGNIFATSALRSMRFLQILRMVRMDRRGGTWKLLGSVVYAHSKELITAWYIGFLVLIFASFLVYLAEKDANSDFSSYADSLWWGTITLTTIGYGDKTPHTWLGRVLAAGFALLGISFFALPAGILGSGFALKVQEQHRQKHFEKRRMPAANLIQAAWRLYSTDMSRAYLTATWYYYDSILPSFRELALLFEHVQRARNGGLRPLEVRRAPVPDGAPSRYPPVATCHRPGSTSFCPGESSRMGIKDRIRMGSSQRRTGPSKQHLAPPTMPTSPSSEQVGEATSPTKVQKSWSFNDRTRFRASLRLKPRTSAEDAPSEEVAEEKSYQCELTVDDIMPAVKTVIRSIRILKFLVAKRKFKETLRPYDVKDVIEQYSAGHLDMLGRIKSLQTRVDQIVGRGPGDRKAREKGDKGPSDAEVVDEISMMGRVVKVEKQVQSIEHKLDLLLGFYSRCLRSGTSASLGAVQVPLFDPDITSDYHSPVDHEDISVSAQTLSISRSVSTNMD
Described as above. The settings on record: read-out: Phenylboronic Acid (PBA) / EC50. An excerpt:
two-electrode voltage clamp, Xenopus oocytes; delta gmax on washout, hyperbola fit on KCNQ4 (Q4)

Assay [3] has as its target T3, Q1/E1 (KCNQ1/KCNE1 complex) (Homo sapiens, UniProt P51787).
T3 construct: with Potassium voltage-gated channel subfamily E member 1
Nature of the assay: two-electrode voltage clamp, Xenopus oocytes. The conditions noted are these: inhibitor, ND96, pH 7.6, +40 mV, 2 s pulse. For orientation: In two-electrode clamp one electrode senses voltage and the other passes current.

Assay [4] has as its target T1, Q2/Q3 (KCNQ2/3). Description: two-electrode voltage clamp, Xenopus oocytes; tail-current Boltzmann fit. The conditions noted are these: activator; 10 mM; ND96, pH 7.6. The text has this: two-electrode voltage clamp, Xenopus oocytes; tail-current Boltzmann fit on Q2/Q3 (KCNQ2/3)
Assay [5] concerns the target T4, Q1/E3 (KCNQ1/KCNE3 complex) (Homo sapiens, UniProt P51787).
T4 construct: with Potassium voltage-gated channel subfamily E member 3
T4 sequence (P51787 1-676): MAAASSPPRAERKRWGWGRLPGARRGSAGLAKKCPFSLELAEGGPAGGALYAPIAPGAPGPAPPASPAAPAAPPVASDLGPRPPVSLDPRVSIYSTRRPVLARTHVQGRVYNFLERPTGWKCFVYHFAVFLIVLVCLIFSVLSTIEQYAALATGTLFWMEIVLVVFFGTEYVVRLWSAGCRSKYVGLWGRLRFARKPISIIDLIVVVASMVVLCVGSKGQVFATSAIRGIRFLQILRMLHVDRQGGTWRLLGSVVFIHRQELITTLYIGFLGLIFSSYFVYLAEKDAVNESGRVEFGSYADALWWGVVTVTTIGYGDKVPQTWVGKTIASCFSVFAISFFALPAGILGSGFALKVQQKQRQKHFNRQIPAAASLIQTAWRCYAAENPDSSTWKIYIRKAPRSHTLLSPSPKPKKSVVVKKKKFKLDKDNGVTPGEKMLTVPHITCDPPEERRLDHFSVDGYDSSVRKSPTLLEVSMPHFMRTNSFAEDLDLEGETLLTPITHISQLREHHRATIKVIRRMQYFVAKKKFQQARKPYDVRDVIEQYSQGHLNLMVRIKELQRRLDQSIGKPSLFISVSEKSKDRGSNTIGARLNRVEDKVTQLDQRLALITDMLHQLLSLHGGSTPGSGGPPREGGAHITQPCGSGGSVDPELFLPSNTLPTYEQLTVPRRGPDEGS
T4 sequence (Q9Y6H6 1-103 partner): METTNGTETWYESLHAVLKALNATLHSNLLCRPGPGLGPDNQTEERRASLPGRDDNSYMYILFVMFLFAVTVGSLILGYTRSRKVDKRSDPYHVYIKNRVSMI
Described as above. The conditions noted are these: activator (raises current, no V1/2 shift); 10 mM; KD50 (50 mM K+), pH 7.6. The text has this:
two-electrode voltage clamp, Xenopus oocytes; tail-current Boltzmann fit on Q1/E3 (KCNQ1/KCNE3 complex)

Assay [6] addresses T3, Q1/E1 (KCNQ1/KCNE1 complex). The description is as above. The conditions noted are these: reversible activator; 10 mM; ND96, pH 7.6. The text has this:
two-electrode voltage clamp, Xenopus oocytes; tail-current Boltzmann fit on Q1/E1 (KCNQ1/KCNE1 complex)

T1 sequence (O43526 whole entry): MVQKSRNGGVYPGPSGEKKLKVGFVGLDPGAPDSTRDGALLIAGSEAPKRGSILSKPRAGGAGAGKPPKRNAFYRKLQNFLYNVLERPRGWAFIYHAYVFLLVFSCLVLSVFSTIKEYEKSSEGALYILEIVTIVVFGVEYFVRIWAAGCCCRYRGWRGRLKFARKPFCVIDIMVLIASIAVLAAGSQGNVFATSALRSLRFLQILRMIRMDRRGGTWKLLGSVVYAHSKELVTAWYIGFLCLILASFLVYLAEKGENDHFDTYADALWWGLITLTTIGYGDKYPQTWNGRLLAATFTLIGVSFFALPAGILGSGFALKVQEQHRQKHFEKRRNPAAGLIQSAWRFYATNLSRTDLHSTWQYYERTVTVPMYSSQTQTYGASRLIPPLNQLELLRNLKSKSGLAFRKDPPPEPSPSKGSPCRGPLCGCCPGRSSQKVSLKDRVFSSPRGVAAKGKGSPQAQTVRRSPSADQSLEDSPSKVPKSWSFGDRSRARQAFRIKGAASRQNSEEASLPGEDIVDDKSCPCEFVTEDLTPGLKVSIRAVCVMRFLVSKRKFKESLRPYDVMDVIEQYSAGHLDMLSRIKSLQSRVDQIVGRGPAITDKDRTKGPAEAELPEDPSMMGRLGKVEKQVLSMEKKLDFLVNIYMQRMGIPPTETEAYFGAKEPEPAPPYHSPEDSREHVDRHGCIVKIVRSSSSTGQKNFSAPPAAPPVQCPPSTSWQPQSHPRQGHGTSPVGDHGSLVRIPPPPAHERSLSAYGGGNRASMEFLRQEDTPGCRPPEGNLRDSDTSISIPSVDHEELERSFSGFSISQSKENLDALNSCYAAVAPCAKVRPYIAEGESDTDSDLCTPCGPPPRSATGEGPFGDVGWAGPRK
T1 sequence (O43525 whole entry): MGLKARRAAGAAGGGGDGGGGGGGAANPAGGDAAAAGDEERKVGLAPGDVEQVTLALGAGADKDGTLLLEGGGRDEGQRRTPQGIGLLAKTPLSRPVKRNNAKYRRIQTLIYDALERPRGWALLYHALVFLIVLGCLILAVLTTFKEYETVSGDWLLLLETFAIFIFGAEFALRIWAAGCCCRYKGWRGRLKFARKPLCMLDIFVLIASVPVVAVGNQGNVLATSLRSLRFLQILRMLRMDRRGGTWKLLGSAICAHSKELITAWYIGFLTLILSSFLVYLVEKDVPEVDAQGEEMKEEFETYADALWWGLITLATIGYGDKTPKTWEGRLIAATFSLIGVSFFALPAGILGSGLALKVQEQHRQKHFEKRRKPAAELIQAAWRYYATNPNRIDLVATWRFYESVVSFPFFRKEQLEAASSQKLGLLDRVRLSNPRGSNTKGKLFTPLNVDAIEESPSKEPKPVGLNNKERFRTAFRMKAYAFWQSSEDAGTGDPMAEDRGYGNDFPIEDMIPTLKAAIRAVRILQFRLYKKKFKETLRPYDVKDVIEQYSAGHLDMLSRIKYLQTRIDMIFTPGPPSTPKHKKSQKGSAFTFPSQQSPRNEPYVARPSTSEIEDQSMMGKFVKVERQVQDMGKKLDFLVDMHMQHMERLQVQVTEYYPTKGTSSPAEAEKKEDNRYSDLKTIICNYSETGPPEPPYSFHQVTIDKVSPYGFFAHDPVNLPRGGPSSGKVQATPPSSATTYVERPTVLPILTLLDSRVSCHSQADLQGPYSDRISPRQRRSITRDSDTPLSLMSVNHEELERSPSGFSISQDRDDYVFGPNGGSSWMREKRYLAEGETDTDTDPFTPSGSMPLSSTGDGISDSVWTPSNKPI

For the molecule `OB(O)c1ccccc1` [PBA, phenylboronic acid], the EC50 in assay [1] was 3.7 ± 1.4 mM; in assay [2], more than 10 mM.

On to `O=C(O)c1ccccc1` [benzoic acid], for which the “reversible inhibition at 10 mM” value in assay [3] is “Perfusion of benzoic acid reversibly inhibited Q1/E1”.

Take `OCc1ccccc1` [benzyl alcohol]: the “Phenylboronic Acid (PBA) / Δ V1/2 (mV)” value is recorded as −5.9±2.9 mV in assay [4], 2.7±4.9 mV in assay [5] and −4.4±2.4 mV in assay [6].

The record behind these values is paper PMC2617778, “Discovery of a Novel Activator of KCNQ1-KCNE1 K^+ Channel Complexes” (PLoS ONE, 2009).
